In US4002738A, “Treatment of specified neoplasias” (Abbott Laboratories, priority 1975, dated 1977):

Columns and labels:
[1] = test system: spontaneous growth in the right lateral mammary region (adenocarcinoma of the mammary gland); experiment: Spontaneous mammary tumor in a female rat, subcutaneous treatment; assay type: in vivo
Experimental: A female rat that had developed a spontaneous growth in the right lateral mammary region was given b.i.d. 10 μg. of the compound of formula I (R'= isobutyl; R = ethyl). […] On day 9, a biopsy was performed and the tumor was identified as adenocarcinoma of the mammary gland. Treatment was stopped after 20 days and the animal was observed periodically. Tumor growth reappeared in the same area with rapid growth observed on day 65 (counted from original treatment beginning). […] Treatment with the above regimen was started again. The tumor regressed again and on day 93, its diameter was 1.2 cm. and its depth was 0.4 cm. […] However, the tumor remained dormant until day 147 (54 days following the last treatment), when significant growing resumed.

[2] = test system: tumors induced by 7,12-dimethylbenzanthracene (DMBA); experiment: DMBA-induced tumors in female rats, subcutaneous treatment; assay type: in vivo, rat
Experimental: In a group of 3 female, 50-day old rats, tumors were induced by intragastric feeding of 20 mg of 7,12-dimethylbenzanthracene (DMBA) in 2 ml. of sesame oil. The animals developed tumors within 10-12 weeks. All animals were maintained on normal rations for 100 days following the DMBA administration, at which time treatment with the compound of formula I (R = ethyl; R' = isobutyl) was started at a b.i.d. regimen Monday through Friday with a single dose on Saturday, the compound being subcutaneously administered as a 0.2% (wt/vol.) solution in isotonic saline.
The first animal carrying 4 tumors of volumes of 5.5, 3, 1 and 1 cc. respectively, was given the above regimen with 10 μg per dose.
In the second animal carrying 3 tumors, each dose contained only 5 μg of the drug.
The third animal had developed 5 tumors, measuring 6.5, 3.5, 1.5, 0.5 and 0.5 cc. respectively. After treatment with 2.5 μg. per dose of the test drug, these tumors were reduced to 1.5, 3.0, 0.5, 0.2 and >0.0 cc. in that sequence.

[3] = day 66, regrowth after treatment was stopped on day 20, before second treatment

**Q.** Which “day until which the tumor remained dormant before significant growing resumed” value ([1]; counted from original treatment beginning, 54 days following the last treatment) does the source give for `CCNC(=O)[C@@H]1CCCN1C(=O)[C@H](CCCNC(=N)N)NC(=O)[C@H](CC(C)C)NC(=O)[C@@H](CC(C)C)NC(=O)[C@H](Cc1ccc(O)cc1)NC(=O)[C@H](CO)NC(=O)[C@H](Cc1c[nH]c2ccccc12)NC(=O)[C@H](Cc1c[nH]cn1)NC(=O)[C@@H]1CCC(=O)N1` here?
**A.** The value was 147 days.

**Q.** And the tumor diameter ([1]; day 5 of treatment, 10 μg b.i.d. subcutaneous, diameter before treatment 3 cm)?
**A.** The tumor diameter was 2 cm.

**Q.** What about the tumor diameter ([1]; day 9 of treatment, 10 μg b.i.d. subcutaneous, diameter before treatment 3 cm) of the same compound?
**A.** The tumor diameter was 0.5 cm.

**Q.** And the tumor diameter ([1]; day 20 of treatment, 10 μg b.i.d. subcutaneous, diameter before treatment 3 cm)?
**A.** The tumor diameter was “undetectable size”.

**Q.** And the tumor depth [1, 3]?
**A.** Its tumor depth is 2 cm.

**Q.** What about the tumor diameter [1, 3] of the same compound?
**A.** Its tumor diameter is 4 cm.

**Q.** What about the tumor depth ([1]; day 93, second treatment started day 66 (depth then 2 cm), 10 μg b.i.d. subcutaneous) of the same compound?
**A.** Its tumor depth is 0.4 cm.

**Q.** And the tumor diameter ([1]; day 93, second treatment started day 66 (diameter then 4 cm), 10 μg b.i.d. subcutaneous)?
**A.** The tumor diameter was 1.2 cm.

**Q.** And the tumor volume ([2]; first animal, 4 tumors of 5.5, 3, 1 and 1 cc, 10 μg per dose, after 2 weeks, the other two tumors)?
**A.** Its tumor volume is “immeasurable volumes”.

**Q.** And the tumor volume ([2]; first animal, 4 tumors of 5.5, 3, 1 and 1 cc, 10 μg per dose, after 2 weeks, two of the tumors)?
**A.** Its tumor volume is 1 cc.

**Q.** What about the effect on tumor ([2]; second animal, 3 tumors, 5 μg per dose, one tumor) of the same compound?
**A.** Its effect on tumor is “seemingly unaffected”.

**Q.** And the tumor volume ([2]; second animal, 5 μg per dose, tumor of 3 cc before treatment)?
**A.** The tumor volume was 11/4.

**Q.** What about the tumor volume ([2]; second animal, 5 μg per dose, tumor of 4 cc before treatment) of the same compound?
**A.** Its tumor volume is 2 cc.

**Q.** What about the tumor volume ([2]; third animal, 2.5 μg per dose, first tumor of 0.5 cc before treatment) of the same compound?
**A.** The tumor volume was 0.2 cc.

**Q.** And the tumor volume ([2]; third animal, 2.5 μg per dose, second tumor of 0.5 cc before treatment)?
**A.** Its tumor volume is > 0.0 cc.

**Q.** What about the tumor volume ([2]; third animal, 2.5 μg per dose, tumor of 1.5 cc before treatment) of the same compound?
**A.** The tumor volume was 0.5 cc.

**Q.** What about the tumor volume ([2]; third animal, 2.5 μg per dose, tumor of 3.5 cc before treatment) of the same compound?
**A.** Its tumor volume is 3.0 cc.

**Q.** What about the tumor volume ([2]; third animal, 2.5 μg per dose, tumor of 6.5 cc before treatment) of the same compound?
**A.** Its tumor volume is 1.5 cc.
